What is called IC50 is the point on the concentration scale where inhibition reaches its midpoint. Read a high IC50 as weaker potency.

Several values for one entry are separate records, joined by “and”; a condition that tells them apart may be missing. Equal entries are not always repeated.

Consider 35 compounds from patent publication US20240336602A1 (Katholieke Universiteit Leuven, priority 2020, published 2024).

T1 sequence (J9SQF3 1-1709 isoform J9SQF3-12): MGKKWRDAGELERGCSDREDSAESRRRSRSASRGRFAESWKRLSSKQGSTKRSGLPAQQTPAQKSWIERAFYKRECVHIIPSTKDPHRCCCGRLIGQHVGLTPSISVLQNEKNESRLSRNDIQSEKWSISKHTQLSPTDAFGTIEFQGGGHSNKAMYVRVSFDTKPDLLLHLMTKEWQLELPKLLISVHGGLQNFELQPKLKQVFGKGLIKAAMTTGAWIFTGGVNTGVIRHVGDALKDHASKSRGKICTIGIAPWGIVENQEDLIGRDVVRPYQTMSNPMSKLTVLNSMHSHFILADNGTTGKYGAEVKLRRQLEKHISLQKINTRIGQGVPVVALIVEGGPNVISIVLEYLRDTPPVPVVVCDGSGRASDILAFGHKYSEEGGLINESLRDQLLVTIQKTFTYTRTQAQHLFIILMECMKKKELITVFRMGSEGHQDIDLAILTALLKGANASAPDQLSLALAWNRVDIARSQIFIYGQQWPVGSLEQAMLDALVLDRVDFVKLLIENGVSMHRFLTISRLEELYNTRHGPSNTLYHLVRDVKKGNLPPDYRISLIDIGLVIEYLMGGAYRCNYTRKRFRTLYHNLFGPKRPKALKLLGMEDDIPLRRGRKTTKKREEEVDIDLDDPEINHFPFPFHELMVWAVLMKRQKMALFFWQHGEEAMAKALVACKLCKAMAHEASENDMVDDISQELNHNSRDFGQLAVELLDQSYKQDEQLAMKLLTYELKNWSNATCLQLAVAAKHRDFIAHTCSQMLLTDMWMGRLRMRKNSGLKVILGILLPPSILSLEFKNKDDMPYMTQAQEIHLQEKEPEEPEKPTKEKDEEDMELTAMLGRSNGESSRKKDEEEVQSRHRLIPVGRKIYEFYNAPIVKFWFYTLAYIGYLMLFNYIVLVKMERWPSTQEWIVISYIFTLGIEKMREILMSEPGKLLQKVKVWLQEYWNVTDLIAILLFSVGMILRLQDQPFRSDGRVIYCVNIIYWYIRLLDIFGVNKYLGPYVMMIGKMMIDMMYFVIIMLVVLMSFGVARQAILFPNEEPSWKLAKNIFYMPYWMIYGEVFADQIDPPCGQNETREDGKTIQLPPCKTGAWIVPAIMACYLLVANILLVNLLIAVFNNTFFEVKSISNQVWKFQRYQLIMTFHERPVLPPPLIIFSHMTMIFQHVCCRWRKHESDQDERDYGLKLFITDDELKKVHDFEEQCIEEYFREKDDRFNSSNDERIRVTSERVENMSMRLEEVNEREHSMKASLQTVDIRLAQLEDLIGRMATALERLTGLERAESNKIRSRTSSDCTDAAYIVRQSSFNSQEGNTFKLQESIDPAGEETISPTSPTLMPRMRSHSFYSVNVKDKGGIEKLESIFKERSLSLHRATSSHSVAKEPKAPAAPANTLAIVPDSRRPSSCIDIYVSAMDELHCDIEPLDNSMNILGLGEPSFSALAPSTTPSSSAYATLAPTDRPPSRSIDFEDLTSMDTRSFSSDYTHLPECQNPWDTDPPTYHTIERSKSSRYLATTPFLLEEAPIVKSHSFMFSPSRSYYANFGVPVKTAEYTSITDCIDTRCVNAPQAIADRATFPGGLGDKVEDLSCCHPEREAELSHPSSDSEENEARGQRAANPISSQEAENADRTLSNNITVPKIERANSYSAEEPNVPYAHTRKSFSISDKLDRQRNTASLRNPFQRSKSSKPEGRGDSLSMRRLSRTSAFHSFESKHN

One assay concerns the target T1, mouse TRPM3a2 (mTRPM3) ion channel (Mus musculus, UniProt J9SQF3).
T1 construct: expressed in transfected cells; host or cells: flip-in HEK293
Put plainly: TRPM3 ion channel driven Ca2+ uptake, Fluo-4 AM assay (PS-stimulated, overexpressing flip-in HEK293 cells). The format is cell-based. The settings on record: PS (50 μM) stimulated Ca2+ influx, HEK293, cpds 200-299. The essentials:
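Flip-in HEK293 cells overexpressing mTRPM3α2, loaded with Fluo-4 AM, were added to wells with compound plus 50 μM pregnenolone sulfate in Ca2+-containing Krebs buffer and read immediately (ex 485/em 535 nm). Percent inhibition was scaled between PS-plus-vehicle and positive-control-inhibitor signals.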
Take `Cc1ncsc1COc1ccc2oc(C)c(C(=O)NC3(CO)CNC3)c2c1` [compound 201, N-(3-(hydroxymethyl)azetidin-3-yl)-2-methyl-5-((4-methylthiazol-5-yl)methoxy)benzofuran-3-carboxamide]: the IC50 is 1000 to 20000 nM.
Take `Cc1oc2ccc(OCc3cccnc3C(F)(F)F)cc2c1C(=O)NC1(CO)CNC1` [compound 202, N-(3-(hydroxymethyl)azetidin-3-yl)-2-methyl-5-((2-(trifluoromethyl)pyridin-3-yl)methoxy)benzo-furan-3-carboxamide]: the IC50 is 1000 to 20000 nM.

The same assay, now with this note: PS (50 μM) stimulated Ca2+ influx, HEK293, cpds 300-399.
`Cc1oc2ccc(OCc3cccnc3O)cc2c1C(=O)NC1COCC1O` (centres unmarked) [350 - En 1] displayed an IC50 of at most 1000 nM.
On the same count and under the same terms, under `Cc1oc2ccc(OCc3cccnc3O)c(F)c2c1C(=O)NC1(CO)CCOCC1` [compound 329, 4-fluoro-N-(4-(hydroxymethyl)tetrahydro-2H-pyran-4-yl)-2-methyl-5-((2-oxo-1,2-dihydropyridin-3-yl)methoxy)benzofuran-3-carboxamide] stands 1000 to 20000 nM.

Staying with this assay, now noted: PS (50 μM) stimulated, cpd 001-199.
On to `Cc1oc2ccc(OCc3nccs3)cc2c1C(=O)NC1CCNC1=O` (centres unmarked) [compound 036, 2-methyl-N-(2-oxopyrrolidin-3-yl)-5-(thiazol-2-ylmethoxy)benzofuran-3-carboxamide], for which the IC50 was at most 1000 nM.
Same read-out and setting: with `COc1ncccc1COc1ccc2oc(C)c(C(=O)NC3CCNC3=O)c2c1` (centres unmarked) [compound 046, 5-((2-methoxypyridin-3-yl)methoxy)-2-methyl-N-(2-oxopyrrolidin-3-yl)benzofuran-3-carboxamide] the figure was at most 1000 nM; with `Cc1ncsc1COc1cc(F)c2oc(C)c(C(=O)NC3(CO)CCOCC3)c2c1` [compound 122, 7-fluoro-N-(4-(hydroxymethyl)tetrahydro-2H-pyran-4-yl)-2-methyl-5-((4-methylthiazol-5-yl)-methoxy)benzofuran-3-carboxamide], 1000 to 20000 nM.
The compound `Cc1cc2oc(C)c(C(=O)NC3(CO)CCOCC3)c2cc1OCc1scnc1C` [compound 185, N-(4-(hydroxymethyl)tetrahydro-2H-pyran-4-yl)-2,6-dimethyl-5-((4-methylthiazol-5-yl)methoxy)-benzofuran-3-carboxamide] yielded an IC50 of 1000 to 20000 nM.
On the same count and under the same terms, with `Cc1ncsc1COc1cc(C)c2oc(C)c(C(=O)NC3(CO)CCOCC3)c2c1` [compound 186, N-(4-(hydroxymethyl)tetrahydro-2H-pyran-4-yl)-2,7-dimethyl-5-((4-methylthiazol-5-yl)methoxy)benzofuran-3-carboxamide] the figure was 1000 to 20000 nM; with `Cc1ncsc1COc1cc(C#N)c2oc(C)c(C(=O)NC3(CO)CCOCC3)c2c1` [compound 188, 7-cyano-N-(4-(hydroxymethyl)tetrahydro-2H-pyran-4-yl)-2-methyl-5-((4-methylthiazol-5-yl)methoxy)benzofuran-3-carboxamide], 1000 to 20000 nM.
Take `Cc1oc2ccc(OCc3ccoc3)cc2c1C(=O)O` [cpd 001, 5-(furan-3-ylmethoxy)-2-methylbenzofuran-3-carboxylic acid]: the IC50 was 1000 to 20000 nM.
On the same count and under the same terms, under `Cc1oc2ccc(OCc3cnco3)cc2c1C(=O)O` [cpd 002, 2-methyl-5-(oxazol-5-ylmethoxy)benzofuran-3-carboxylic acid] stands at least 20000 nM.
On the same count and under the same terms, under `Cc1oc2ccc(OCc3ccccn3)cc2c1C(=O)O` [cpd 005, 2-methyl-5-(pyridin-2-ylmethoxy)benzofuran-3-carboxylic acid] stands 1000 to 20000 nM.
Compound `Cc1oc2ccc(OCc3cccnc3)cc2c1C(=O)O` [cpd 006, 2-methyl-5-(pyridin-3-ylmethoxy)benzofuran-3-carboxylic acid] gave an IC50 of 1000 to 20000 nM.
On the same count and under the same terms, under `Cc1oc2ccc(OCc3cccnn3)cc2c1C(=O)O` [cpd 007, 2-methyl-5-(pyridazin-3-ylmethoxy)benzofuran-3-carboxylic acid] stands 1000 to 20000 nM; under `Cc1oc2ccc(OCc3ccn(C)n3)cc2c1C(=O)O` [cpd 009, 2-methyl-5-((1-methyl-1H-pyrazol-3-yl)methoxy)benzofuran-3-carboxylic acid], 1000 to 20000 nM.
As to `Cc1oc2ccc(OCc3cnn(C)c3)cc2c1C(=O)O` [cpd 010, 2-methyl-5-((1-methyl-1H-pyrazol-4-yl)methoxy)benzofuran-3-carboxylic acid], the IC50 lay within 1000 to 20000 nM.
With `Cc1oc2ccc(OCc3ccsc3)cc2c1C(=O)O` [cpd 011, 2-methyl-5-(thiophen-3-ylmethoxy)benzofuran-3-carboxylic acid], the IC50 lay within 1000 to 20000 nM.
Same read-out and setting: under `Cc1oc2ccc(OCc3cccs3)cc2c1C(=O)O` [cpd 012, 2-methyl-5-(thiophen-2-ylmethoxy)benzofuran-3-carboxylic acid] stands 1000 to 20000 nM; under `Cc1oc2ccc(OCc3nccs3)cc2c1C(=O)O` [cpd 013, 2-methyl-5-(thiazol-2-ylmethoxy)benzofuran-3-carboxylic acid], 1000 to 20000 nM.
Same read-out and setting: with `Cc1oc2ccc(OCc3cncs3)cc2c1C(=O)O` [cpd 014, 2-methyl-5-(thiazol-5-ylmethoxy)benzofuran-3-carboxylic acid] the figure was 1000 to 20000 nM.

Staying with this assay, now noted: PS (50 μM) stimulated, cpds. 400-499.
For the compound `Cc1ncc(COc2ccc3oc(C)c(C(=O)N[C@@H](CO)c4nc5ccccc5[nH]4)c3c2)s1` [401 - En 1, (R)-N-(1-(1H-benzo[d]imidazol-2-yl)-2-hydroxyethyl)-2-methyl-5-((2-methylthiazol-5-yl)methoxy)benzofuran-3-carboxamide], the IC50 was at most 1000 nM.
Compound `Cc1ncsc1COc1ccc2oc(C)c(C(=O)NC3CCN(CCOCCO)C3=O)c2c1` (centres unmarked) [402 - En 1] displayed an IC50 of 1000 to 20000 nM.
The compound `Cc1ncc(COc2ccc3oc(C)c(C(=O)NC(C)C(N)=O)c3c2)s1` (centres unmarked) [434 - En 2] gave an IC50 of at most 1000 nM.
`Cc1oc2ccc(OCc3ccccn3)cc2c1C(=O)NC(C)C(N)=O` (centres unmarked) [435 - En 2] displayed an IC50 of at most 1000 nM.
Still for that read-out and setting: with `Cc1ncsc1COc1ccc2oc(C)c(C(=O)NC(COC(F)F)C(N)=O)c2c1` (centres unmarked) [448 - En 1] the figure was at most 1000 nM.
The same measure, in the same setting: under `Cc1oc2ccc(OCc3ccccn3)cc2c1C(=O)NC(CO)C(N)=O` (centres unmarked) [455 - En 2] stands at most 1000 nM.
The same measure, in the same setting: under `Cc1ncsc1COc1ccc2oc(C)c(C(=O)NC(CCO)C(N)=O)c2c1` (centres unmarked) [469 - En 1] stands at most 1000 nM.

The assay is the same for the next values; noted with them: PS (50 μM) stimulated, cpds. 500-599.
`Cc1ncc(COc2ccc3oc(C)c(C(=O)NC4(CO)CCNC4=O)c3c2)o1` (centres unmarked) [515 - En 1]: the IC50 was ≤ 1000 nM and 1000 to 20000 nM.
Still for that read-out and setting: under `Cc1ncc(COc2ccc3oc(C)c(C(=O)NC4(CO)CCNC4=O)c3c2)s1` (centres unmarked) [517 - En 1] stands at most 1000 nM.
On the same count and under the same terms, with `Cc1ncsc1COc1ccc2oc(C)c(C(=O)NCC(C(N)=O)N(C)C)c2c1` (centres unmarked) [575 - En 1] the figure was at most 1000 nM; with `Cc1ncsc1COc1ccc2oc(C)c(C(=O)N(C)C3(C(N)=O)COC3)c2c1` [compound 589, N-(3-carbamoyloxetan-3-yl)-N,2-dimethyl-5-((4-methylthiazol-5-yl)methoxy)benzofuran-3-carboxamide], at most 1000 nM.
Still for that read-out and setting: with `Cc1ncsc1COc1ccc2oc(C)c(C(=O)N(C)C3(C#N)COC3)c2c1` [compound 599, N-(3-cyanooxetan-3-yl)-N,2-dimethyl-5-((4-methylthiazol-5-yl)methoxy)benzofuran-3-carboxamide] the figure was 1000 to 20000 nM.

Staying with this assay, now noted: PS (50 μM) stimulated, cpds. 600-666.
The compound `Cc1oc2ccc(OCc3nccn3C)cc2c1C(=O)NC1COCC1O` (centres unmarked) [653 - En 1] had an IC50 of 1000 to 20000 nM.
With `Cc1oc2ccc(OCc3nccn3C)cc2c1C(=O)NC1COCC1O` (centres unmarked) [654 - En 2], the IC50 was 1000 to 20000 nM.
